# Data reported in patent US11214803B2, “Modulators of YAP1 expression” (Ionis Pharmaceuticals, Inc., priority 2019, dated 2022).
# Strand notation (5' to 3'): a small letter for the sugar, then the base; units joined by * are phosphorothioate-linked, units joined directly phosphodiester-linked; [ ] holds rarer units or linkages, { } end groups; capitals alone tell only the bases. k = constrained ethyl (cEt); [5mC] = 5-methylcytosine; d = 2'-deoxy (DNA)
# Tested on: Yap1 mRNA
# Assay: Antisense inhibition of human Yap1 in A-431 cells by cEt gapmers, single dose (Example 3, RTS36584)
# Type: cell-based
# Method in brief: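 Human epidermoid A-431 cells take up gapmer (2,000 nM, free uptake, ~48 h); Yap1 transcript is then assayed by qRT-PCR with RiboGreen normalization and reported relative to untreated cells. Gapmers carry cEt-modified wings, phosphorothioate linkages and 5-methylcytosine throughout.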
# [1] = Table 34, Yap1 mRNA as percent of untreated control, 3-10-3 cEt gapmers targeting SEQ ID NO: 1 and 2, single dose
# [2] = Table 8, A-431 cells, 5,000 cells per well, free uptake, 2,000 nM, approximately 48 hours, RTS36584, normalized to RIBOGREEN, Yap1 mRNA relative to untreated control cells
# [3] = Table 35, Yap1 mRNA as percent of untreated control, 3-10-3 cEt gapmers targeting SEQ ID NO: 1 and 2, single dose
# [4] = Table 9, A-431 cells, 5,000 cells per well, free uptake, 2,000 nM, approximately 48 hours, RTS36584, normalized to RIBOGREEN, Yap1 mRNA relative to untreated control cells
# [5] = Table 12, A-431 cells, 5,000 cells per well, free uptake, 2,000 nM modified oligonucleotide, approx. 48 hours, RTS36584, normalized to RIBOGREEN, Yap1 mRNA relative to untreated control cells
# [6] = Table 29, Yap1 mRNA as percent of untreated control, 3-10-3 cEt gapmers targeting SEQ ID NO.: 1, and 2
# [7] = Table 10, A-431 cells, 5,000 cells per well, free uptake, 2,000 nM oligonucleotide, approx. 48 hours, primer probe set RTS36584, Yap1 mRNA normalized to RIBOGREEN, percent of untreated control
# [8] = Table 26, Yap1 mRNA by 3-10-3 cEt gapmers targeting SEQ ID NO.: 1, and 2, percent of untreated control
# [9] = Table 13, A-431 cells, 5,000 cells per well, free uptake, 2,000 nM modified oligonucleotide, approx. 48 hours, RTS36584, normalized to RIBOGREEN, Yap1 mRNA relative to untreated control cells
# [10] = Table 27, Yap1 mRNA by 3-10-3 cEt gapmers targeting SEQ ID NO.: 1, and 2, percent of untreated control
# [11] = Table 28, Yap1 mRNA as percent of untreated control, 3-10-3 cEt gapmers targeting SEQ ID NO.: 1, and 2
substance,measurement,setting,value
1074260 (antisense kG*kT*kT*d[5mC]*dA*dT*d[5mC]*dA*dT*dA*dT*dT*d[5mC]*kT*kG*k[5mC]) [compound 1074260],YAP1 (% UTC),[1],48 % UTC
958388 (antisense kG*kG*kA*dG*dG*d[5mC]*dG*d[5mC]*dG*d[5mC]*dG*d[5mC]*dA*kT*kT*kG) [Compound 958388],YAP1 (% UTC),[2],112 % UTC
1076437 (kG*kA*kA*dG*dA*dA*dT*dA*dG*d[5mC]*dA*dT*d[5mC]*kT*kG*kA; antisense) [compound 1076437],YAP1 (% UTC),[3],19 % UTC
958661 (kT*kG*k[5mC]*d[5mC]*dG*dT*dT*dG*dG*d[5mC]*d[5mC]*d[5mC]*d[5mC]*kT*k[5mC]*k[5mC]; antisense) [Compound 958661],YAP1 (% UTC),[4],120 % UTC
958564 (kT*k[5mC]*k[5mC]*dA*dA*dA*dT*dT*dG*dA*dA*dG*dG*kG*k[5mC]*k[5mC]; antisense) [Compound 958564],YAP1 (% UTC),[5],62 % UTC
1074959 (antisense kT*kT*kA*dA*d[5mC]*d[5mC]*d[5mC]*dG*dG*dG*dT*dT*dT*kT*kT*kG) [compound 1074959],YAP1 (% UTC),[6],128 % UTC
1074895 (antisense kT*k[5mC]*k[5mC]*dT*dA*dT*dG*d[5mC]*dT*dG*dA*dA*dG*kT*kT*kT) [compound 1074895],YAP1 (% UTC),[6],60 % UTC
958647 (kT*kA*kG*dG*dA*dA*dG*dT*dT*dG*dT*dT*dG*kA*k[5mC]*k[5mC]; antisense) [Compound 958647],YAP1 (% UTC),[7],11 % UTC
1075375 (antisense k[5mC]*kT*kA*dA*dA*dT*dA*dT*d[5mC]*dA*dA*d[5mC]*dT*k[5mC]*k[5mC]*k[5mC]) [compound 1075375],YAP1 (% UTC),[6],35 % UTC
1075727 (kT*kT*kA*dT*d[5mC]*dG*dG*dA*dG*dG*d[5mC]*dT*dT*k[5mC]*kG*k[5mC]; antisense) [compound 1075727],YAP1 (% UTC),[6],31 % UTC
958632 (antisense k[5mC]*kT*k[5mC]*d[5mC]*dG*dA*d[5mC]*dA*dG*dG*dA*dG*dA*k[5mC]*kT*kA) [Compound 958632],YAP1 (% UTC),[7],55 % UTC
1074255 (antisense kT*k[5mC]*kA*dT*d[5mC]*dT*dG*dG*dG*dA*d[5mC]*dA*dG*k[5mC]*kA*kT) [compound 1074255],YAP1 (% UTC),[6],16 % UTC
958531 (kG*kT*kA*dG*dG*dA*dG*d[5mC]*dA*dA*dG*dT*d[5mC]*kT*kT*kG; antisense) [Compound 958531],YAP1 (% UTC),[4],5 % UTC
1075791 (k[5mC]*kT*kT*dT*dA*dT*d[5mC]*dA*dG*d[5mC]*d[5mC]*dA*dT*k[5mC]*kA*k[5mC]; antisense) [compound 1075791],YAP1 (% UTC),[6],10 % UTC
1074924 (antisense k[5mC]*k[5mC]*kT*dG*d[5mC]*dA*dA*dA*dT*dA*dG*dG*dA*kG*kA*kG) [compound 1074924],YAP1 (% UTC),[8],87 % UTC
958537 (k[5mC]*kA*kG*dG*dG*dT*d[5mC]*dA*dA*dT*dT*dT*dT*k[5mC]*kA*kG; antisense) [Compound 958537],YAP1 (% UTC),[7],3 % UTC
958685 (antisense kA*kG*k[5mC]*dT*dA*dT*dG*dG*dA*dA*dA*dG*dT*kG*kT*k[5mC]) [Compound 958685],YAP1 (% UTC),[9],24 % UTC
1076236 (kG*kG*kA*dG*dA*dA*d[5mC]*d[5mC]*dT*dT*dA*dT*dT*kT*kA*kT; antisense) [compound 1076236],YAP1 (% UTC),[8],51 % UTC
1074124 (kG*kG*k[5mC]*dT*dG*d[5mC]*dG*dA*dG*dG*d[5mC]*dA*d[5mC]*kT*k[5mC]*kG; antisense) [compound 1074124],YAP1 (% UTC),[8],94 % UTC
1075596 (antisense kA*kT*kA*dT*dA*dA*dT*dA*d[5mC]*dA*dT*d[5mC]*dT*k[5mC]*k[5mC]*k[5mC]) [compound 1075596],YAP1 (% UTC),[8],91 % UTC
1075508 (kG*kA*kA*dA*dA*dA*dG*dG*dT*dT*dT*dA*dG*kG*kG*kT; antisense) [compound 1075508],YAP1 (% UTC),[1],84 % UTC
958561 (kA*k[5mC]*kA*d[5mC]*dA*dG*dA*dG*dG*dT*dG*d[5mC]*dT*kA*kG*k[5mC]; antisense) [Compound 958561],YAP1 (% UTC),[4],48 % UTC
958476 (antisense kT*kT*k[5mC]*d[5mC]*dG*dG*dT*dG*d[5mC]*dA*dT*dG*dT*kG*kT*k[5mC]) [Compound 958476],YAP1 (% UTC),[4],2 % UTC
1076237 (kA*k[5mC]*kT*dA*dA*dA*dG*dG*dA*d[5mC]*dA*dA*dA*kG*kG*kT; antisense) [compound 1076237],YAP1 (% UTC),[10],109 % UTC
958631 (antisense kT*kG*k[5mC]*dA*dA*dA*dT*dA*dG*dG*dA*dG*dA*kG*kG*kG) [Compound 958631],YAP1 (% UTC),[4],122 % UTC
1075535 (kA*kA*kT*dT*dA*d[5mC]*d[5mC]*d[5mC]*dA*dA*dG*dG*dA*k[5mC]*kA*kG; antisense) [compound 1075535],YAP1 (% UTC),[6],53 % UTC
1074389 (kG*k[5mC]*kA*dG*dA*d[5mC]*dT*dT*dG*dG*d[5mC]*dA*dT*k[5mC]*kA*kG; antisense) [compound 1074389],YAP1 (% UTC),[3],14 % UTC
958791 (antisense k[5mC]*kA*kT*dA*dA*dG*dA*dA*dA*dA*dG*dA*d[5mC]*kG*kA*k[5mC]) [Compound 958791],YAP1 (% UTC),[4],123 % UTC
958536 (kA*kG*kG*dG*dT*d[5mC]*dA*dA*dT*dT*dT*dT*d[5mC]*kA*kG*k[5mC]; antisense) [Compound 958536],YAP1 (% UTC),[4],3 % UTC
958391 (antisense kA*kG*k[5mC]*dG*dA*dA*dG*dG*dT*dG*d[5mC]*dG*dG*kA*kG*k[5mC]) [Compound 958391],YAP1 (% UTC),[2],102 % UTC
958610 (antisense kA*kG*kG*dT*dA*dA*d[5mC]*dA*dT*dT*dG*dG*dT*kA*k[5mC]*kT) [Compound 958610],YAP1 (% UTC),[9],34 % UTC
958670 (kG*kG*kT*d[5mC]*dT*dT*dG*dG*dT*dG*dA*dT*dT*kG*kG*k[5mC]; antisense) [Compound 958670],YAP1 (% UTC),[9],20 % UTC
958687 (antisense kA*k[5mC]*kA*d[5mC]*dT*dA*dT*dG*dT*dG*dT*dT*d[5mC]*kT*kG*k[5mC]) [Compound 958687],YAP1 (% UTC),[7],57 % UTC
1076557 (kA*kA*k[5mC]*dA*dA*dA*dT*dA*d[5mC]*d[5mC]*dA*dG*dG*kT*kT*k[5mC]; antisense) [compound 1076557],YAP1 (% UTC),[10],111 % UTC
958570 (kT*kG*kT*dA*dA*dT*dT*d[5mC]*dA*dT*dA*dT*dA*k[5mC]*k[5mC]*k[5mC]; antisense) [Compound 958570],YAP1 (% UTC),[9],5 % UTC
1076078 (k[5mC]*kT*kT*dT*dA*dG*d[5mC]*d[5mC]*dT*d[5mC]*dT*dA*dT*kA*k[5mC]*k[5mC]; antisense) [compound 1076078],YAP1 (% UTC),[11],23 % UTC
958747 (antisense kG*kT*kA*dA*dA*dG*dA*dG*dG*dG*dT*dG*dA*k[5mC]*kA*kT) [Compound 958747],YAP1 (% UTC),[7],106 % UTC
1074700 (antisense kG*kT*kA*dA*dG*dA*d[5mC]*dA*dA*dG*dT*d[5mC]*dT*kT*kT*kA) [compound 1074700],YAP1 (% UTC),[8],26 % UTC
958784 (antisense kG*kG*k[5mC]*dT*dG*dG*dA*dT*dA*dG*dA*dA*dT*kG*k[5mC]*kT) [Compound 958784],YAP1 (% UTC),[5],79 % UTC
1074575 (DNA kA*k[5mC]*kA*dT*dT*dA*dT*dG*dA*dA*d[5mC]*d[5mC]*dT*kA*k[5mC]*kT) [compound 1074575],YAP1 (% UTC),[6],14 % UTC
958446 (antisense k[5mC]*k[5mC]*kT*dG*dA*d[5mC]*d[5mC]*d[5mC]*dA*dG*dG*d[5mC]*dG*kA*kG*k[5mC]) [Compound 958446],YAP1 (% UTC),[4],70 % UTC
1076175 (k[5mC]*kA*kA*dT*dA*dG*dG*dT*dA*dA*d[5mC]*dA*dG*kG*kT*kA; antisense) [compound 1076175],YAP1 (% UTC),[6],15 % UTC
1075374 (antisense kG*kA*kA*dA*dA*dT*dA*d[5mC]*dT*d[5mC]*d[5mC]*dT*d[5mC]*k[5mC]*kT*kA) [compound 1075374],YAP1 (% UTC),[11],27 % UTC
1075693 (k[5mC]*kA*kT*dT*dA*dA*dA*dA*dG*dT*dT*dG*dG*kG*kT*kT; antisense) [compound 1075693],YAP1 (% UTC),[10],36 % UTC
